The values that follow come from publication PMC10920428 (Applied Microbiology and Biotechnology, 2024).

Each structure is given as a SMILES string.

Broadly, the IC50 is the concentration needed to halve the response being measured. The low end stands for inhibition by little substance, the high end for a need for much substance.

In this assay the target is T1, homogentisate solanesyltransferase (CrHST) (Chlamydomonas reinhardtii, UniProt A1JHN0).
T1 construct: gene HST; N-terminal GST tag (pDEST15), expressed in E. coli BL21 AI
T1 sequence (A1JHN0 51-370): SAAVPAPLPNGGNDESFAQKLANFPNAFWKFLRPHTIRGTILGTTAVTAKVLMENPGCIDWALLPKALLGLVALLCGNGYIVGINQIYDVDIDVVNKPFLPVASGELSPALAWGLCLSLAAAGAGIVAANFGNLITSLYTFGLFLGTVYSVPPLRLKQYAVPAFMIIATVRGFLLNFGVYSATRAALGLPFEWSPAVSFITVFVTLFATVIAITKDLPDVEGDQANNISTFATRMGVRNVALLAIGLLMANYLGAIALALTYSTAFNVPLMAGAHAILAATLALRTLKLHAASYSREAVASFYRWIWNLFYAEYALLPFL
Description: biochemical.

`Cc1cccc(C2CC2)c1Oc1nnc(Cl)cc1O` [DMC, Des-Morpholinocarbony Cyclopyrimorate] had an IC50 of 3.63 ± 0.53 µM.
